The target in data set [1] is T1, Aβ40 (Homo sapiens, UniProt P05067).
T1 construct: Lyophilized Aβ40 was monomerized following previous procedures; purchased GenScript
In words: Dynamic light scattering (DLS) of ThT assay samples. The data set is classed as biochemical. Conditions: for DLS prominent peak particle size / DLS minor feature share of the total spectrum / DLS minor feature particle size: Aβ40 co-incubated with complex 6 h; for DLS prominent peak particle size: PBS pH 7.4, 37 °C, Aβ40 alone around 340 nm; for DLS minor feature share of the total spectrum: Aβ40 alone 13 percent; for DLS minor feature particle size: Aβ40 alone 78 nm; for Ranking DLS: scale 1 to 5 (1 = best, 5 = worst). As to the method:
Samples were extracted from the ThT assay plate for DLS analysis. A 125 μL sample was placed into a 1 mL syringe and injected through a syringe filter (pore size: 0.2 μm), into a 0.5 mL microcentrifuge tube. The filtrate was added to a microvolume polystyrene cuvette and placed into a Malvern Zetasizer Nano ZSP to measure the DLS spectra. Measurements are represented as an average of percent intensity through several runs determined by Zetasizer software Version 7.13.1.
Samples for DLS analysis were taken directly from the ThT assay following its completion. This allowed for a comparison between both data sets, to determine if a correlation for activity between the complexes could be established. For the Aβ40 peptide alone, a prominent peak around 340 nm was observed, while following treatment with the respective Ru complexes, a discernable shift to smaller particle sizes was unanimously observed (Figure 6).

The target of data set [2] is T2, human serum albumin (HSA) (Homo sapiens, UniProt P02768).
T2 construct: purchased Sigma Aldrich
T2 sequence (P02768 25-609): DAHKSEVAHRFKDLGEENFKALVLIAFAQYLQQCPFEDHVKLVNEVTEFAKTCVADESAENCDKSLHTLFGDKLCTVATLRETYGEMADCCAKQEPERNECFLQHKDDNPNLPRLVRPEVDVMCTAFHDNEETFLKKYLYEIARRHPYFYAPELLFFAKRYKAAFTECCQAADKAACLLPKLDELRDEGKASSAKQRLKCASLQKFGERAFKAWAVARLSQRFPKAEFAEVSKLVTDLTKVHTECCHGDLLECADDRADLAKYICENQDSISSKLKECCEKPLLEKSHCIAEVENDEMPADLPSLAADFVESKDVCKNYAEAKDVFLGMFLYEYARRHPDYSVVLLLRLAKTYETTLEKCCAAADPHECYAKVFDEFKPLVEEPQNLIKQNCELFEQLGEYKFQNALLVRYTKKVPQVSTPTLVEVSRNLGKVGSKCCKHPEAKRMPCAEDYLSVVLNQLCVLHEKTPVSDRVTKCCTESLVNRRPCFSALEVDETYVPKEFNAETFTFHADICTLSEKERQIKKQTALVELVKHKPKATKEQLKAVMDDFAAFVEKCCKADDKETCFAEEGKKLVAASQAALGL
Description: Protein binding assay, dansyl glycine (DG) displacement, Sudlow site II. Conditions: for Log K (DG), conditional binding constant to serum albumin: dansyl glycine probe, Sudlow site II, Stern–Volmer slope, HSA and DG 2.5 μM, PBS; for Ranking HSA: scale 1 to 5 (1 = best, 5 = worst), binding to HSA. The method, then:
(§1) A stock of human serum albumin (HSA, 100 μM) was prepared using PBS, while the probes dansyl glycine (DG) and warfarin (WF) were prepared by initially dissolving them in DMSO and diluting them with PBS until the concentration of DMSO was less than 5%. Solutions of each Ru complex were prepared by initial dissolution in DMSO and subsequent dilution using PBS until the concentration of DMSO was less than 5%. The total volume of each sample was 3.5 mL, where the concentration of HSA and DG/WF was 2.5 μM throughout the experiment. The Ru concentration ranged from 0 μM to 62.5 μM, with an increase of 12.5 μM for each sample. In total, six samples were prepared for each protein binding assay. After preparation, the samples were placed on an IKA Trayster inversion mixer (60 rpm) for 30 s and incubated at approximately 28 °C in a Neslab gp-200 for 15 min, before being placed back on the inversion mixer (60 rpm) for 30 s. All fluorescence measurements for the protein binding assay were made using a PTI QuantiMaster 50, and the samples were measured at room temperature with conditions respective to the probe.
(§2) One important consideration for a potential AD therapeutic is its interaction with serum proteins, specifically albumin (HSA). […] To determine the potential association of the prepared Ru complexes with HSA, a protein binding assay was performed. For these studies, the displacement of two fluorometric probes was used to determine the relative affinity of the Ru complexes for two of the established binding sites on HSA. The first probe, warfarin (WF), an anticoagulant, binds selectively to Sudlow site I on HSA [55], while the second probe used was dansyl glycine (DG), which selectively binds to Sudlow site II on HSA [56]. As these are the two major binding sites on the protein, the probes allow for observations of binding events that occur within these hydrophobic pockets. Individually, the probes were initially mixed with HSA, followed by increasing amounts of the respective Ru complexes, whereby the decrease in fluorescence signals from the respective probes (Figures S22–S30) was used to construct a Stern–Volmer plot, where the slope of the line represents the conditional binding constant (K’) for the respective Ru complexes to each site (Figure 8).

Data set [3] can be described thus: Aqueous stability by 1H NMR (DMSO-D6/D2O, 37 °C). The data set is classed as physicochemical. Conditions: for ligand exchange in aqueous media (1H NMR): DMSO-D6/D2O, up to 24 h (RuBtB in 75% DMSO); for incubation time at which new 1H NMR signals (ligand exchange) reached maximum intensity: 25% DMSO-D6 in D2O. The method, then: A common step in the mechanism of action for most metal-based drugs is ligand exchange around the metal center. This promotes the coordination of the complex to the penultimate biological target, eliciting the desired response. […] Therefore, to evaluate the relative stability of the prepared complexes, ^1H NMR studies were performed. Following complete dissolution of the complexes in deuterated DMSO, dilution using D2O to a final DMSO concentration of 25% provided aqueous samples that were measured following prolonged incubation at 37 °C.
For the majority of the complexes, new signals emerged in close proximity to those of the parent complex, even without any incubation. […] A previously study monitoring ligand exchange for RuB in the presence of several proteins saw that neither the arene ring nor the 2,2-bipyridine ligands were lost, but rather the labile monodentate chloride ligand was replaced.

Data set [4] deals with T1, Aβ40. In words: Thioflavin T (ThT) fluorescence assay of Aβ40 aggregation. The data set is classed as biochemical. Conditions: for relative aggregation of Aβ40 (ThT fluorescence normalized to Aβ40 alone): equimolar 10 µM complex and Aβ40, 10 µM ThT, final 6 h time point, 37 °C; for Ranking ThT: scale 1 to 5 (1 = best, 5 = worst). As to the method:
All PBS used in the assay was filtered through a 0.20 μm Titan 3 syringe filter prior to use. The Ru stock solutions initially dissolved about 1.5 mg of each Ru complex in 100 µL DMSO and diluted it to 10 mL with PBS. Thioflavin T (ThT) was prepared in the same manner as the Ru complexes but was filtered prior to use in the assay. Lyophilized Aβ40 was monomerized following previous procedures and stored at −20 °C until use. When removed from the freezer, peptide samples were held on ice for 20 min prior to preparation for the assay. The Aβ40 was mixed with a 15 μL aliquot of DMSO and gently flicked to initiate dissolution. Next, 135 μL PBS was added, and the sample was sonicated until the solution was clear. The concentration of the Aβ40 stock solution was determined using an Implen NanoPhotometer N50 at λ = 280 nm with an extinction coefficient of 1490 M^−1 cm^−1 [27]. Samples were prepared in a 96-well plate by the sequential addition of PBS, Ru, ThT, and Aβ, where the final volume was 150 μL, and the analyte concentrations were 10 μM each. Thioflavin T (ThT) fluorescence was measured using the SpectraMax M3 plate reader with λex = 440 nm and λem = 480 nm. Measurements were taken every 30 min for a total of 6 h, with shaking occurring between each reading.
Each of the prepared Ru complexes was mixed with an equimolar amount of Aβ40 (10 µM), along with ThT (10 µM). Each sample was prepared in triplicate, loaded onto a microwell plate, and incubated at 37 °C with constant agitation to promote aggregation, with fluorescence measurements taken every 30 min for up to 6 h. The resultant fluorescence signals were normalized to the last time point for the samples of Aβ40 alone. After 4 h of incubation, a sharp increase in fluorescence for the peptide alone was observed, signifying that aggregation was occurring (Figure 5). […] Remarkably, the activity shown by RuBA is among the greatest we have measured thus far across a variety of Ru complexes. To confirm this activity, the samples from the ThT assay were subjected to additional analysis, as described below.
Figure 5 ThT fluorescence results following the incubation of equimolar solutions (10 μM) of Aβ40 with the Ru complexes for up to 6 h at 37 °C. The signals were normalized to the positive control of the free peptide in solution at the 6 h time point. The error bars represent the standard deviation observed for each data point for the respective samples.

For data set [5], the target named is T2, human serum albumin (HSA). In words: Protein binding assay, warfarin (WF) displacement, Sudlow site I. Conditions: warfarin probe, Stern–Volmer slope, HSA and WF 2.5 μM, PBS. As to the method: as §1, §2

From article PMC12024814, “Ruthenium(II)–Arene Complexes with a 2,2′-Bipyridine Ligand as Anti-Aβ Agents” (Biomolecules, 2025) come the findings set out here.

T1 sequence (P05067 672-711 limits assumed): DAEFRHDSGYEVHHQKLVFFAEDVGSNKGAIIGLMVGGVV

In the case of “[Ru(η^6-p-cymene)(4,4′-di-tert-butyl-2,2′-bipyridine)Cl]PF6 [RuBtB]”, in data set [1], the “DLS prominent peak particle size” value was determined as 264 nm, the “DLS minor feature share of the total spectrum” value (“DLS minor feature share” for short) was found to be 4%, the “DLS minor feature particle size” value was 53 nm and the “Ranking DLS” value was determined as 5. Also, in data set [2], the “Log K (DG), conditional binding constant to serum albumin” value (from here on “Log K (DG)”) is 3.85 and the “Ranking HSA” value stood at 1. For the same compound, the “ligand exchange in aqueous media (1H NMR)” value in data set [3] is reported as “no new signals emerged even after 24 h of incubation”. Besides, in data set [4], the “relative aggregation of Aβ40 (ThT fluorescence normalized to Aβ40 alone)” value is listed as 14.3% ± 0.6% and the “Ranking ThT” value worked out at 3.

“[Ru(η^6-p-cymene)(4,4′-dimethoxy-2,2′-bipyridine)Cl]PF6 [RuBMeO]”: the “Log K (WF), conditional binding constant to serum albumin” value (“Log K (WF)” for short) in data set [5] amounted to 4.00. For the same compound, in data set [1], the “DLS prominent peak particle size” value is 239 nm, the “DLS minor feature share” value is on record as 11%, the “DLS minor feature particle size” value stood at 32 nm and the “Ranking DLS” value was 2. Besides, in data set [2], the “Log K (DG)” value is reported as 3.91 and the “Ranking HSA” value is on record as 2. For the same compound, in data set [3], the “incubation time at which new 1H NMR signals (ligand exchange) reached maximum intensity” value worked out at 1 h. In data set [4], the “relative aggregation of Aβ40 (ThT fluorescence normalized to Aβ40 alone)” value is on record as 16.1% ± 6.9% and the “Ranking ThT” value stood at 4.

For the compound `Cc1ccc(C(C)C)cc1.Cc1ccnc(-c2cc(C)ccn2)c1.F[P-](F)(F)(F)(F)F.[Cl-].[Ru+2]` [RuBMe, [Ru(η^6-p-cymene)(4,4′-dimethyl-2,2′-bipyridine)Cl]PF6], in data set [5], the “Log K (WF)” value is given as 4.56. In data set [1], the “DLS prominent peak particle size” value is recorded as 214 nm, the “DLS minor feature share” value stood at 2%, the “DLS minor feature particle size” value is listed as 24 nm and the “Ranking DLS” value came out at 1. In data set [2], the “Log K (DG)” value turned out to be 3.99 and the “Ranking HSA” value came to 4. The “incubation time at which new 1H NMR signals (ligand exchange) reached maximum intensity” value in data set [3] is given as 1 h. In addition, in data set [4], the “Ranking ThT” value is reported as 5.

With `Cc1ccc(C(C)C)cc1.F[P-](F)(F)(F)(F)F.[Cl-].[Ru+2].c1ccc(-c2ccccn2)nc1` [RuB, [Ru(η^6-p-cymene)(2,2′-bipyridine)Cl]PF6], in data set [5], the “Log K (WF)” value was 4.24. Besides, in data set [1], the “DLS prominent peak particle size” value stood at 227 nm, the “DLS minor feature share” value is given as 4%, the “DLS minor feature particle size” value came to 21 nm and the “Ranking DLS” value is 3. Further, in data set [2], the “Log K (DG)” value was 3.96 and the “Ranking HSA” value is given as 3. For the same compound, in data set [3], the “incubation time at which new 1H NMR signals (ligand exchange) reached maximum intensity” value is 1 h. Further, in data set [4], the “relative aggregation of Aβ40 (ThT fluorescence normalized to Aβ40 alone)” value was 9.0% ± 2.3% and the “Ranking ThT” value amounted to 2.

As to “[Ru(η^6-p-cymene)(4,4′-diamino-2,2′-bipyridine)Cl]PF6 [RuBA]”, in data set [5], the “Log K (WF)” value amounted to 4.38. Besides, in data set [1], the “DLS prominent peak particle size” value was 231 nm, the “DLS minor feature share” value is given as 3%, the “DLS minor feature particle size” value amounted to 42 nm and the “Ranking DLS” value was determined as 4. For the same compound, in data set [2], the “Log K (DG)” value turned out to be 4.07 and the “Ranking HSA” value is recorded as 5. Further, in data set [3], the “ligand exchange in aqueous media (1H NMR)” value was “particularly rapid”. For the same compound, the “Ranking ThT” value in data set [4] was determined as 1.
